Some test systems named below: CAKI-1 renal; COLO 205 colon; HT29 colon; MDA-MB-435; NCI-H226 lung; NCI-H23 lung; RPMI-8226 leukemia; SF-295 CNS; SW-620 colon; UACC-257 melanoma.
What all share (assay): growth of human tumour cells (NCI), 48 h

Several values for one entry are separate records, joined by “and”; a condition that tells them apart may be missing. Equal entries are not always repeated.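 These data come from cells grown in 96-well plates and exposed to compound for 48 hours at five concentrations. GI50 = concentration required for 50% inhibition of growth. The concentration for full growth arrest is given as TGI.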

Here are results for six compounds from PubChem BioAssay (NCI).

Turning to `COc1ccc(C2CC(c3ccc4ccccc4c3)=NN2c2nc(O)c(C3=c4cc(Cl)ccc4=NC3=O)s2)cc1` (stereo not drawn), the GI50 is 0.036 µM and < 0.005 µM with CAKI-1 renal; 0.0221 µM with COLO 205 colon; 0.0307 µM and < 0.005 µM in the test with HT29 colon; 0.0215 µM and < 0.005 µM with MDA-MB-435; 0.0208 µM in the test with NCI-H226 lung; 0.0226 µM and < 0.005 µM with NCI-H23 lung. The GI50 with RPMI-8226 leukemia is 0.0641 µM; with SF-295 CNS it was 0.0197 µM and < 0.005 µM; in the test with SW-620 colon, 0.0187 µM and < 0.005 µM. Also, the TGI is 0.0503 µM in the test with COLO 205 colon; 0.771 µM and 0.556 µM in the test with HT29 colon; 0.0483 µM and < 0.005 µM with MDA-MB-435; 0.052 µM in the test on NCI-H226 lung; 0.0491 µM and < 0.005 µM with SF-295 CNS; 0.0374 µM and < 0.005 µM in the test with SW-620 colon.
Consider `CCCCNP1(NCCCC)=NP(NCCCC)(NCCCC)=NP(NCCCC)(NCCCC)=NP(NCCCC)(NCCCC)=N1`, for which the GI50 with CAKI-1 renal is 9.3 µM; in the test with COLO 205 colon it was 0.301 µM; in the test on HT29 colon, 0.213 µM; in the test with MDA-MB-435, 0.931 µM; in the test on NCI-H226 lung it was 1.72 µM; with NCI-H23 lung, 0.271 µM. Besides, the GI50 was 0.905 µM in the test on SF-295 CNS, 0.861 µM in the test with SW-620 colon and 1.23 µM in the test with UACC-257 melanoma. For the same compound, the TGI turned out to be 36 µM in the test on CAKI-1 renal; 0.848 µM with COLO 205 colon; 17.7 µM with HT29 colon; 6.51 µM in the test with MDA-MB-435; 7.91 µM with NCI-H226 lung; 3.2 µM in the test with NCI-H23 lung. The TGI was found to be 5.6 µM in the test on SF-295 CNS, 15.9 µM in the test on SW-620 colon and 5.55 µM in the test with UACC-257 melanoma.
As to `CC1OC(OC2C(O)C(OCCc3ccc(O)c(O)c3)OC(CO)C2OC(=O)/C=C/c2ccc(O)c(O)c2)C(O)C(O)C1O` (stereo not drawn), the GI50 in the test on CAKI-1 renal is 40 µM; with COLO 205 colon, above 100 µM; in the test with MDA-MB-435 it was 39.7 µM; in the test with NCI-H23 lung, above 100 µM; with RPMI-8226 leukemia, 42.4 µM; with SF-295 CNS it was 31.5 µM. Besides, the GI50 in the test on SW-620 colon is 28.7 µM; in the test with UACC-257 melanoma, above 100 µM. The TGI in the test on CAKI-1 renal, with COLO 205 colon, with MDA-MB-435, in the test with NCI-H23 lung, in the test on RPMI-8226 leukemia and with SF-295 CNS was above 100 µM in each case. The TGI in the test on SW-620 colon is 72 µM; with UACC-257 melanoma, above 100 µM.
In the case of `COc1cc2c(cc1OC)-c1c(c3ccc([N+](=O)[O-])cc3c(=O)n1CCCN=[N+]=[N-])C2=O`, the GI50 in the test on CAKI-1 renal was 26.3 µM; with COLO 205 colon it was above 100 µM; in the test on HT29 colon it was above 100 µM; with MDA-MB-435, above 100 µM; in the test on NCI-H226 lung, above 100 µM; with NCI-H23 lung, 40.5 µM. In addition, the figures for the GI50 in the test on SF-295 CNS, with SW-620 colon and in the test with UACC-257 melanoma were 30.1 µM, 99.8 µM and above 100 µM, respectively. Also, the TGI was 70.7 µM with CAKI-1 renal; above 100 µM with COLO 205 colon; above 100 µM in the test on HT29 colon; above 100 µM in the test on MDA-MB-435; above 100 µM in the test on NCI-H226 lung; above 100 µM with NCI-H23 lung. Moreover, the TGI in the test on SF-295 CNS, in the test with SW-620 colon and in the test with UACC-257 melanoma was above 100 µM throughout.
Take `NS(=O)(=O)c1ccc(-n2nc(-c3ccccc3)cc2-c2cc(O)ccc2O)cc1`: the GI50 is above 100 µM in the test on CAKI-1 renal; above 100 µM with COLO 205 colon; 74.8 µM in the test with HT29 colon; 92.1 µM in the test with MDA-MB-435; above 100 µM in the test on NCI-H226 lung; 77.1 µM with NCI-H23 lung. Further, the GI50 was above 100 µM in the test with SF-295 CNS, above 100 µM in the test on SW-620 colon and 34.4 µM in the test on UACC-257 melanoma. Moreover, the TGI in the test with CAKI-1 renal, with COLO 205 colon, in the test on HT29 colon, in the test on MDA-MB-435, with NCI-H226 lung and in the test with NCI-H23 lung was above 100 µM throughout. In addition, the TGI in the test on SF-295 CNS, with SW-620 colon and with UACC-257 melanoma was above 100 µM each time.
For the compound `COc1ccc(-c2nsc3c2NC(=O)CC3c2cccc(F)c2)cc1` (stereo not drawn), the GI50 is 4.69 µM in the test on CAKI-1 renal; 2.95 µM in the test with COLO 205 colon; 3.11 µM with HT29 colon; 0.827 µM in the test on MDA-MB-435; 6.74 µM in the test with NCI-H226 lung; 5.02 µM in the test with NCI-H23 lung. In addition, the GI50 with RPMI-8226 leukemia is 4.18 µM; with SF-295 CNS, 6.68 µM; with SW-620 colon, 3.08 µM. Further, the TGI was above 100 µM in the test on CAKI-1 renal; above 100 µM in the test on COLO 205 colon; above 100 µM in the test with HT29 colon; 4.07 µM in the test on MDA-MB-435; above 100 µM with NCI-H226 lung; above 100 µM in the test on NCI-H23 lung. For the same compound, the TGI in the test on RPMI-8226 leukemia, with SF-295 CNS and in the test on SW-620 colon was above 100 µM throughout.
